# Results taken from publication PMC4027054 (Journal of medicinal chemistry, 2013).
# Entries after “also recorded” stand apart in the source; their conditions may differ.
# Legend:
# [1] = test system: WT HIV-1; assay type: cell-based; conditions: for antiviral activity in the single replication cycle assay: concentrations up to 10 μM, data not shown
# [2] = test system: AZT-resistant HIV (D67N/K70R/T215F/K219Q); assay: Single replication cycle antiviral assay, AZT-resistant virus; assay type: cell-based; conditions: read-out: EC50 AZTr HIV
# [3] = test system: NNRTI-resistant HIV (L100I/K103N); assay type: cell-based; conditions: read-out: EC50 NNRTIr HIV
# [4] = target: AZT-resistant HIV-1 RT (AZTr) D67N/K70R/T215F/K219Q (Human immunodeficiency virus type 1 group M subtype B, UniProt P03366, D666N/K669R/K818Q/T814F); assay type: biochemical; conditions: ATP-mediated excision by AZTr RT; chain-terminated primer
# [5] = test system: HIV-1 IIIB; assay: microbe, parasite or virus in culture; assay type: cell-based; conditions: Human immunodeficiency virus 1, IIIB, CEM-SS, read-out: Inhibition % @ 10 μM
# [6] = Compound cytotoxicity / cell viability in the cytoprotection assay; assay type: cell-based; conditions: human, CEM-SS cells
compound,measurement,setting,value
"3’-Azidothymidine [AZT, reference compound]",EC50,"[1]; read-out: Single Replication Cycle Assay EC50, WT HIV, WT HIV-1, P4R5 cells",140 nM
same,EC50,[2],7900 nM
same,EC50,[3],120 nM
same,rate of nucleotide excision of the terminal nucleotide,[4],0.024 min⁻¹
"Cc1cn([C@H]2C[C@H](n3nncc3COc3cccc4ccccc34)[C@@H](CO)O2)c(=O)[nH]c1=O [Compound 9c, 1-((2R,4S,5S)-5-(Hydroxymethyl)-4-(5-((naphthalen-1-yloxy)methyl)-1H-1,2,3-triazol-1-yl)tetrahydrofuran-2-yl)-5-methylpyrimidine-2,4(1H,3H)-dione]",antiviral activity in the single replication cycle assay,[1],none showed significant antiviral activity
"COc1ccc2cc(OCc3cnnn3[C@H]3C[C@H](n4cc(C)c(=O)[nH]c4=O)O[C@@H]3CO)ccc2c1 [Compound 9e, 1-((2R,4S,5S)-5-(Hydroxymethyl)-4-(5-(((6-methoxynaphthalen-2-yl)oxy)methyl)-1H-1,2,3-triazol-1-yl)tetrahydrofuran-2-yl)-5-methylpyrimidine-2,4(1H,3H)-dione]",antiviral activity in the single replication cycle assay,[1],none showed significant antiviral activity
"Cc1cn([C@H]2C[C@H](n3nncc3-c3ccc(Oc4ccccc4)cc3)[C@@H](CO)O2)c(=O)[nH]c1=O [Compound 18i, 1-((2R,4S,5S)-5-(Hydroxymethyl)-4-(5-(4-phenoxyphenyl)-1H-1,2,3-triazol-1-yl)tetrahydrofuran-2-yl)-5-methylpyrimidine-2,4(1H,3H)-dione]",antiviral activity in the single replication cycle assay,[1],none showed significant antiviral activity
"Cc1cn([C@H]2C[C@H](n3nncc3-c3ccc(-c4ccccc4)cc3)[C@@H](CO)O2)c(=O)[nH]c1=O [Compound 18j, 1-((2R,4S,5S)-4-(5-([1,1’-Biphenyl]-4-yl)-1H-1,2,3-triazol-1-yl)-5-(hydroxymethyl)tetrahydrofuran-2-yl)-5-methylpyrimidine-2,4(1H,3H)-dione]",antiviral activity in the single replication cycle assay,[1],none showed significant antiviral activity
"Cc1cn([C@H]2C[C@H](n3nncc3C3CCCCC3)[C@@H](CO)O2)c(=O)[nH]c1=O [Compound 18l, 1-((2R,4S,5S)-4-(5-Cyclohexyl-1H-1,2,3-triazol-1-yl)-5-(hydroxymethyl)tetrahydrofuran-2-yl)-5-methylpyrimidine-2,4(1H,3H)-dione]",antiviral activity in the single replication cycle assay,[1],did not produce significant antiviral activity; also recorded: none showed significant antiviral activity
same,inhibition at 10 µM,[5],100%
same,"viability at 6 days, 10 µM",[6],100%
"Cc1cn([C@H]2C[C@H](n3nncc3-c3ccc(Cl)c(Cl)c3)[C@@H](CO)O2)c(=O)[nH]c1=O [Compound 18n, 1-((2R,4S,5S)-4-(5-(3,4-Dichlorophenyl)-1H-1,2,3-triazol-1-yl)-5-(hydroxymethyl)tetrahydrofuran-2-yl)-5-methylpyrimidine-2,4(1H,3H)-dione]",antiviral activity in the single replication cycle assay,[1],none showed significant antiviral activity
Cc1cn([C@H]2C[C@H](n3nncc3-c3cccc4ccccc34)[C@@H](COP(=O)([O-])OP(=O)([O-])OP(=O)([O-])[O-])O2)c(=O)[nH]c1=O.[Na+].[Na+].[Na+].[Na+] [Compound 21a],rate of nucleotide excision of the terminal nucleotide,[4],0.0126 min⁻¹
